Measured values published in patent publication US6046043A, “Method for the conversion of carbonyl compounds to their β-unsaturated derivatives using molecular oxygen as the oxidant” (The Regents of the University of Michigan, priority 1998, dated 2000).

Tests used:
Old Yellow Enzyme = target: T1, Old Yellow Enzyme (Saccharomyces pastorianus, UniProt Q02899); assay: p-Cl-phenol binding to native Old Yellow Enzyme (charge transfer complex); set-up: species or system Brewer's Bottom Yeast
T1 construct: recombinant OYE I (pET-3b, E. coli) or enzyme isolated from brewer's bottom yeast (mix of close OYE isoforms)
T1 sequence (Q02899 2-400): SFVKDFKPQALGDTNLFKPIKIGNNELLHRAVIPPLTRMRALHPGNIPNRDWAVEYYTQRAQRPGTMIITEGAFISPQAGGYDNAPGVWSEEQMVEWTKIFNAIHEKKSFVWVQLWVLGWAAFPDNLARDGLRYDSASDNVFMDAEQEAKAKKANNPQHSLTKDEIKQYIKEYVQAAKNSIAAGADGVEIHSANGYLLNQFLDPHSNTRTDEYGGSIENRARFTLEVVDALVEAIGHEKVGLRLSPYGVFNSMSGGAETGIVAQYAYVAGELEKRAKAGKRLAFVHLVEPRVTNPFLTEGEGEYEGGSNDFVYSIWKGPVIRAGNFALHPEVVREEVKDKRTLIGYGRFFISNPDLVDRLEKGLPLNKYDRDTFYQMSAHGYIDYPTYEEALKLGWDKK
Experimental: The apoprotein of Old Yellow Enzyme was prepared and reconstituted with 8-CN-8-demethyl-flavin mononucleotide as described above. […] Native enzyme binds p-Cl-phenol with a Kd of~1 μM and has a maximum of 645 nm for the charge transfer absorption band. The 115 nm blue shift thus falls in line with the 170 mV more positive potential compared to that of the native flavin.

8-CN-FMN-OYE = target: T2, 8-CN-FMN-OYE (Saccharomyces pastorianus, UniProt Q02899); assay: Oxidation of saturated carbonyl substrates by the catalyst with molecular oxygen (GC/MS); assay type: biochemical
T2 construct: made in house; host or cells: Escherichia coli (plasmid pET-3b)
T2 sequence (Q02899 whole entry): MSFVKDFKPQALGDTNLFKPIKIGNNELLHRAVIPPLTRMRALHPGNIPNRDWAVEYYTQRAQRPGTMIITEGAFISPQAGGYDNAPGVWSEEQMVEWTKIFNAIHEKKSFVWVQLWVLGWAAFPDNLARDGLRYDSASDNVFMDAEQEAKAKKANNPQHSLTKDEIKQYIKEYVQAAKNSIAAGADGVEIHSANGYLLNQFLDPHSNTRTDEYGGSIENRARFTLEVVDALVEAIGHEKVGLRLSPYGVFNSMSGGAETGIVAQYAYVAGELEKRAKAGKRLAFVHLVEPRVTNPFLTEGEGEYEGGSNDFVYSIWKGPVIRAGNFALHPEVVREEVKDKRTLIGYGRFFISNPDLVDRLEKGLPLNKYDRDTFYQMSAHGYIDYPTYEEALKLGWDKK
Experimental: Two ml of 10 mM solution of hydrocinnamaldehyde (C6 H5 --CH2 --CH2 --CHO) in 100 mM sodium pyrophosphate buffer, pH 8.5 was taken in a 5 ml test tube with a small magnetic stir bar at room temperature. The catalyst, as a concentrated solution in the same buffer, was added to the above solution so that final concentration of the catalyst is 10 μM. […]
When and wherever side reactions were observed due to hydrogen peroxide (which is produced during the oxidation), 5 μl of catalase (1 mg/ml) was added to the reaction mixture prior to the addition of the catalyst as a hydrogen peroxide scavenger.
The racemic 3-phenyl-butyraldehyde was subjected to typical oxidation reaction with the catalytic system of the present invention. […] It can be concluded, in analogy to the 3-Me-cyclopentanone reaction, that the oxidation of S-enantiomer only catalyzed by the catalyst leaving the R-enantiomer intact as hydrogen at the asymmetric center lies in unfavorable geometry. This reaction once again highlights the potential of the present catalytic system in resolving racemic carbonyl compounds.

[1] = Redox potential of flavin cofactor; assay type: physicochemical

For `Oc1ccc(Cl)cc1` [p-Cl-phenol], the Kd (Old Yellow Enzyme) was about 1000 nM.
In the case of `O=CCCc1ccccc1` [hydrocinnamaldehyde], the “conversion of the substrate to cinnamaldehyde” value (8-CN-FMN-OYE; 10 mM substrate, 10 μM catalyst, pH 8.5, room temperature, 3 hours, GC/mass spectral analysis) is reported as “complete conversion”.
For `Cc1cc2nc3c(=O)[nH]c(=O)nc-3n(C[C@H](O)[C@H](O)[C@H](O)COP(=O)(O)O)c2cc1C#N` [8-CN-FMN, 8-CN-8-demethyl-flavin mononucleotide], the redox potential [1] was -38 mV and the “redox potential positive to the native cofactor, FMN” value ([1]; difference versus FMN) was “about 170 mV”.
In the case of `CC(CC=O)c1ccccc1` (racemic) [3-phenyl-butyraldehyde], the substrate reacted (8-CN-FMN-OYE; racemic substrate, 36 hours-48 hours, GC/MS) is reported as ~ 50%.
